Results: PubChem BioAssay (NCI)
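48-hour exposure; five concentrations; linearly interpolated endpoints. GI50 marks 50% less growth. Definition used: TGI = concentration required for complete inhibition of growth.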

Columns and labels:
Experiment in all cases: inhibition of tumour cell growth, NCI panel, 48 h
NCI/ADR-RES ovarian = system: NCI/ADR-RES ovarian
NCI-H460 lung = system: NCI-H460 lung
OVCAR-8 ovarian = system: OVCAR-8 ovarian
SF-539 CNS = system: SF-539 CNS
MDA-MB-231 breast = system: MDA-MB-231 breast
SR leukemia = system: SR leukemia
A549 NSCLC = system: A549 NSCLC
KM12 colon = system: KM12 colon
SN12C renal = system: SN12C renal
SK-OV-3 ovarian = system: SK-OV-3 ovarian
MCF7 breast = system: MCF7 breast
SF-268 CNS = system: SF-268 CNS
OVCAR-4 ovarian = system: OVCAR-4 ovarian
SK-MEL-28 melanoma = system: SK-MEL-28 melanoma
NCI-H23 lung = system: NCI-H23 lung
NCI-H226 lung = system: NCI-H226 lung
SK-MEL-2 melanoma = system: SK-MEL-2 melanoma
UACC-257 melanoma = system: UACC-257 melanoma
HCC-2998 colon = system: HCC-2998 colon
A498 renal = system: A498 renal
HT29 colon = system: HT29 colon
M14 melanoma = system: M14 melanoma
K-562 leukemia = system: K-562 leukemia
DU-145 prostate = system: DU-145 prostate
UACC-62 melanoma = system: UACC-62 melanoma
RPMI-8226 leukemia = system: RPMI-8226 leukemia
LOX IMVI melanoma = system: LOX IMVI melanoma
TK-10 renal = system: TK-10 renal
RXF 393 renal = system: RXF 393 renal
IGROV1 ovarian = system: IGROV1 ovarian
MALME-3M melanoma = system: MALME-3M melanoma
U251 CNS = system: U251 CNS
MOLT-4 leukemia = system: MOLT-4 leukemia
HCT-15 colon = system: HCT-15 colon
COLO 205 colon = system: COLO 205 colon
HOP-62 NSCLC = system: HOP-62 NSCLC
UO-31 renal = system: UO-31 renal
ACHN renal = system: ACHN renal
786-0 renal = system: 786-0 renal
SNB-75 CNS = system: SNB-75 CNS
SNB-19 CNS = system: SNB-19 CNS
SK-MEL-5 melanoma = system: SK-MEL-5 melanoma
BT-549 breast = system: BT-549 breast
HCT-116 colon = system: HCT-116 colon
EKVX NSCLC = system: EKVX NSCLC
PC-3 prostate = system: PC-3 prostate
SW-620 colon = system: SW-620 colon
MDA-N = system: MDA-N
NCI-H522 lung = system: NCI-H522 lung
MDA-MB-435 = system: MDA-MB-435
CAKI-1 renal = system: CAKI-1 renal
CCRF-CEM leukemia = system: CCRF-CEM leukemia
SF-295 CNS = system: SF-295 CNS
T-47D breast = system: T-47D breast
OVCAR-5 ovarian = system: OVCAR-5 ovarian
OVCAR-3 ovarian = system: OVCAR-3 ovarian
HS 578T breast = system: HS 578T breast
HOP-92 NSCLC = system: HOP-92 NSCLC
HL-60(TB) leukemia = system: HL-60(TB) leukemia

**Q.** With C[C@@H]1CC[C@@H]2[C@@H](C1)O[C@@H]([C@@H](C)OCc1ccccc1)SC2(C)C as the compound, how does the TGI (NCI/ADR-RES ovarian) read?
**A.** 40.2 µM

**Q.** What about the TGI (NCI-H460 lung) of the same compound?
**A.** 49.1 µM

**Q.** What about the TGI (OVCAR-8 ovarian) of the same compound?
**A.** 58.8 µM

**Q.** What about the TGI (SF-539 CNS) of the same compound?
**A.** 33.6 µM

**Q.** What about the TGI (MDA-MB-231 breast) of the same compound?
**A.** 38.2 µM

**Q.** What about the TGI (SR leukemia) of the same compound?
**A.** 34.9 µM

**Q.** What about the TGI (A549 NSCLC) of the same compound?
**A.** 83.4 µM

**Q.** And the TGI (KM12 colon)?
**A.** 34.4 µM

**Q.** And the TGI (SN12C renal)?
**A.** 32.3 µM

**Q.** And the TGI (SK-OV-3 ovarian)?
**A.** 59.9 µM

**Q.** And the TGI (MCF7 breast)?
**A.** 35.3 µM

**Q.** What about the TGI (SF-268 CNS) of the same compound?
**A.** 51.8 µM

**Q.** What about the TGI (OVCAR-4 ovarian) of the same compound?
**A.** 69.7 µM

**Q.** And the TGI (SK-MEL-28 melanoma)?
**A.** 60.4 µM

**Q.** And the TGI (NCI-H23 lung)?
**A.** 51.5 µM

**Q.** What about the TGI (NCI-H226 lung) of the same compound?
**A.** 34.5 µM

**Q.** And the TGI (SK-MEL-2 melanoma)?
**A.** 31 µM

**Q.** And the TGI (UACC-257 melanoma)?
**A.** 39.9 µM

**Q.** And the TGI (HCC-2998 colon)?
**A.** 33.7 µM

**Q.** What about the TGI (A498 renal) of the same compound?
**A.** 32 µM

**Q.** What about the TGI (HT29 colon) of the same compound?
**A.** 36.7 µM

**Q.** And the TGI (M14 melanoma)?
**A.** 37.7 µM

**Q.** And the TGI (K-562 leukemia)?
**A.** 36 µM

**Q.** What about the TGI (DU-145 prostate) of the same compound?
**A.** > 100 µM

**Q.** What about the TGI (UACC-62 melanoma) of the same compound?
**A.** 43.2 µM

**Q.** What about the TGI (RPMI-8226 leukemia) of the same compound?
**A.** 35.4 µM

**Q.** And the TGI (LOX IMVI melanoma)?
**A.** 41.9 µM

**Q.** And the TGI (TK-10 renal)?
**A.** 55.4 µM

**Q.** What about the TGI (RXF 393 renal) of the same compound?
**A.** 30.7 µM

**Q.** And the TGI (IGROV1 ovarian)?
**A.** 63.3 µM

**Q.** And the TGI (MALME-3M melanoma)?
**A.** 37.9 µM

**Q.** What about the TGI (U251 CNS) of the same compound?
**A.** 32.6 µM

**Q.** And the TGI (MOLT-4 leukemia)?
**A.** 32.3 µM

**Q.** And the TGI (HCT-15 colon)?
**A.** 36.8 µM

**Q.** What about the TGI (COLO 205 colon) of the same compound?
**A.** 32.7 µM

**Q.** What about the TGI (HOP-62 NSCLC) of the same compound?
**A.** 32.3 µM

**Q.** What about the TGI (UO-31 renal) of the same compound?
**A.** 30.6 µM

**Q.** And the TGI (ACHN renal)?
**A.** 31.6 µM

**Q.** What about the TGI (786-0 renal) of the same compound?
**A.** 34 µM

**Q.** What about the TGI (SNB-75 CNS) of the same compound?
**A.** 34 µM

**Q.** What about the TGI (SNB-19 CNS) of the same compound?
**A.** 33.6 µM

**Q.** What about the TGI (SK-MEL-5 melanoma) of the same compound?
**A.** 31.3 µM

**Q.** What about the TGI (BT-549 breast) of the same compound?
**A.** 42.6 µM

**Q.** And the TGI (HCT-116 colon)?
**A.** 34.5 µM

**Q.** What about the TGI (EKVX NSCLC) of the same compound?
**A.** 67.4 µM

**Q.** And the TGI (PC-3 prostate)?
**A.** 45.4 µM

**Q.** And the TGI (SW-620 colon)?
**A.** 34 µM

**Q.** And the TGI (MDA-N)?
**A.** 36.3 µM

**Q.** And the TGI (NCI-H522 lung)?
**A.** 31.1 µM

**Q.** And the TGI (MDA-MB-435)?
**A.** 35.8 µM

**Q.** What about the TGI (CAKI-1 renal) of the same compound?
**A.** 29 µM

**Q.** And the TGI (CCRF-CEM leukemia)?
**A.** 34.5 µM

**Q.** And the TGI (SF-295 CNS)?
**A.** 31.2 µM

**Q.** And the TGI (T-47D breast)?
**A.** 32.4 µM

**Q.** And the TGI (OVCAR-5 ovarian)?
**A.** 32.9 µM

**Q.** For Cc1cc(-c2nc3c(F)cccc3s2)ccc1N, which TGI (NCI/ADR-RES ovarian) is on record?
**A.** > 100 µM

**Q.** What about the TGI (OVCAR-8 ovarian) of the same compound?
**A.** > 100 µM

**Q.** What about the TGI (MDA-MB-231 breast) of the same compound?
**A.** > 100 µM

**Q.** And the TGI (SR leukemia)?
**A.** > 100 µM

**Q.** And the TGI (A549 NSCLC)?
**A.** > 100 µM

**Q.** What about the TGI (KM12 colon) of the same compound?
**A.** > 100 µM

**Q.** And the TGI (SN12C renal)?
**A.** > 100 µM

**Q.** And the TGI (SK-OV-3 ovarian)?
**A.** > 100 µM

**Q.** And the TGI (MCF7 breast)?
**A.** > 100 µM

**Q.** And the TGI (SF-268 CNS)?
**A.** > 100 µM

**Q.** What about the GI50 (OVCAR-4 ovarian) of the same compound?
**A.** 20.9 µM

**Q.** And the TGI (OVCAR-4 ovarian)?
**A.** > 100 µM

**Q.** And the TGI (SK-MEL-28 melanoma)?
**A.** > 100 µM

**Q.** What about the TGI (NCI-H23 lung) of the same compound?
**A.** > 100 µM

**Q.** And the GI50 (NCI-H226 lung)?
**A.** 5.45 µM

**Q.** What about the TGI (NCI-H226 lung) of the same compound?
**A.** > 100 µM

**Q.** What about the TGI (SK-MEL-2 melanoma) of the same compound?
**A.** > 100 µM

**Q.** And the TGI (UACC-257 melanoma)?
**A.** > 100 µM

**Q.** What about the GI50 (HCC-2998 colon) of the same compound?
**A.** > 100 µM

**Q.** And the TGI (HCC-2998 colon)?
**A.** > 100 µM

**Q.** What about the TGI (A498 renal) of the same compound?
**A.** > 100 µM

**Q.** What about the TGI (HT29 colon) of the same compound?
**A.** > 100 µM

**Q.** What about the TGI (M14 melanoma) of the same compound?
**A.** > 100 µM

**Q.** And the TGI (K-562 leukemia)?
**A.** > 100 µM

**Q.** What about the TGI (DU-145 prostate) of the same compound?
**A.** > 100 µM

**Q.** What about the TGI (OVCAR-3 ovarian) of the same compound?
**A.** > 100 µM

**Q.** What about the TGI (UACC-62 melanoma) of the same compound?
**A.** > 100 µM

**Q.** And the TGI (RPMI-8226 leukemia)?
**A.** > 100 µM

**Q.** And the TGI (LOX IMVI melanoma)?
**A.** > 100 µM

**Q.** And the TGI (RXF 393 renal)?
**A.** > 100 µM

**Q.** And the GI50 (IGROV1 ovarian)?
**A.** 22.7 µM

**Q.** And the TGI (IGROV1 ovarian)?
**A.** > 100 µM

**Q.** What about the TGI (MALME-3M melanoma) of the same compound?
**A.** > 100 µM

**Q.** And the TGI (U251 CNS)?
**A.** > 100 µM

**Q.** And the TGI (MOLT-4 leukemia)?
**A.** 63.9 µM

**Q.** What about the TGI (HCT-15 colon) of the same compound?
**A.** > 100 µM

**Q.** What about the TGI (COLO 205 colon) of the same compound?
**A.** > 100 µM

**Q.** And the TGI (HOP-62 NSCLC)?
**A.** > 100 µM

**Q.** And the TGI (HS 578T breast)?
**A.** > 100 µM

**Q.** And the TGI (UO-31 renal)?
**A.** > 100 µM

**Q.** What about the TGI (ACHN renal) of the same compound?
**A.** > 100 µM

**Q.** What about the TGI (786-0 renal) of the same compound?
**A.** > 100 µM

**Q.** And the TGI (HOP-92 NSCLC)?
**A.** > 100 µM

**Q.** What about the TGI (HL-60(TB) leukemia) of the same compound?
**A.** > 100 µM

**Q.** What about the TGI (SNB-75 CNS) of the same compound?
**A.** > 100 µM

**Q.** And the TGI (SK-MEL-5 melanoma)?
**A.** > 100 µM

**Q.** And the TGI (BT-549 breast)?
**A.** > 100 µM

**Q.** What about the TGI (HCT-116 colon) of the same compound?
**A.** > 100 µM

**Q.** And the TGI (EKVX NSCLC)?
**A.** 31.5 µM

**Q.** And the TGI (PC-3 prostate)?
**A.** > 100 µM

**Q.** And the TGI (SW-620 colon)?
**A.** > 100 µM

**Q.** What about the TGI (MDA-N) of the same compound?
**A.** > 100 µM

**Q.** And the TGI (NCI-H522 lung)?
**A.** > 100 µM

**Q.** And the TGI (MDA-MB-435)?
**A.** > 100 µM

**Q.** And the TGI (CAKI-1 renal)?
**A.** > 100 µM

**Q.** And the TGI (CCRF-CEM leukemia)?
**A.** > 100 µM

**Q.** What about the TGI (SF-295 CNS) of the same compound?
**A.** > 100 µM

**Q.** And the GI50 (OVCAR-5 ovarian)?
**A.** 1.68 µM

**Q.** And the TGI (OVCAR-5 ovarian)?
**A.** 76.2 µM
